Experimental data taken from patent publication US4800191A, “LHRH antagonists” (priority 1987, dated 1989).
Values joined by “and” are separate entries in the source; they are usually repeats but may differ in a detail not shown here. Equal entries are not always repeated. *1 amine or outer side, *2 acyl side, *3 side chain or, on linkers, in order; H or OH if unused. Where a SMILES comes first, the peptide text is derived from it. Side-chain parts run from the residue outwards. [ ]: non-standard residue; d: D form. dPhe(4-Cl) = N[C@H](Cc1ccc(Cl)cc1)C(=O)O; d2Nal = N[C@H](Cc1ccc2ccccc2c1)C(=O)O; d(hCit) = NC(=O)NCCCC[C@@H](N)C(=O)O; dCit = NC(=O)NCCC[C@@H](N)C(=O)O; dOrn = NCCC[C@@H](N)C(=O)O; CO = O=C([*:1])[*:2]

System: rats
Assay: edematogenic test of Schmidt, et al.
Type: in vivo, rat
Conditions: 1.5 mg/kg s.c. once a day on two consecutive days; for 1st Day FR (full responders: facial edema with edematous extremities), rats / 1st Day PR (partial responders: edema of the nasal and paranasal area), rats / 1st Day NR (no apparent reaction), rats: day 1; for 1st Day NR (no apparent reaction), rats: observed five hours each day; for 2nd Day FR (full responders: facial edema with edematous extremities), rats / 2nd Day NR (no apparent reaction), rats / 2nd Day PR (partial responders: edema of the nasal and paranasal area), rats: day 2
Experimental: In the edematogenic test of Schmidt, et al. (Contraception, 29, 283-289, 1984), however, a marked difference can be found between the control peptides and the peptides of the present invention. The control peptides produce edema of the face and extremities when administered subcutaneously in rats at doses of 0.75 or 1.25 mg/kg. No such reaction can be observed with the peptides of the present invention when given at a subcutaneous dose of 1.5 mg/kg.
In the tests as run the rats were assigned to three groups of five rats per group per compound tested. Comparison with made with a known prior art compound designated ORG 30276 namely (N-Ac-D-p-Cl-Phe^1,2, D-Trp^3, D-Arg^6, D-Ala^10)-LHRH. The groups were injected subcuntaneously once a day on two consecutive days with the LHRH antagonists at a dose level of 1.5 mg/kg. One control group was injected with diluent only. The rats were observed during five hours each day. Reactions of the rats were classified as follows: NR no apparent reaction, PR partial responders: edema of the nasal and paranasal area, FR full responders: facial edema with edematous extremities.

Molecule | 1st Day FR (full responders: facial edema with edematous extremities), rats | 1st Day PR (partial responders: edema of the nasal and paranasal area), rats | 1st Day NR (no apparent reaction), rats | 2nd Day FR (full responders: facial edema with edematous extremities), rats | 2nd Day NR (no apparent reaction), rats | 2nd Day PR (partial responders: edema of the nasal and paranasal area), rats
CC(=O)N[C@H](Cc1ccc2ccccc2c1)C(=O)N[C@H](Cc1ccc(Cl)cc1)C(=O)N[C@H](Cc1c[nH]c2ccccc12)C(=O)N[C@@H](CO)C(=O)N[C@@H](Cc1ccc(O)cc1)C(=O)N[C@H](CCCNC(N)=O)C(=O)N[C@@H](CC(C)C)C(=O)N[C@@H](CCCNC(=N)N)C(=O)N1CCC[C@H]1C(=O)N[C@H](C)C(N)=O [EX III, Ac-D-Nal(2)-D-Phe(4-Cl)-D-Trp-Ser-Tyr-D-Cit-Leu-Arg-Pro-D-Ala-NH^2] (Ac-[d2Nal][dPhe(4-Cl)][dW]SY[dCit]LRP[dA]-NH2) | 0 | 0 | 8 | – | – | –
CCNC(=O)NCCC[C@@H](NC(=O)[C@H](Cc1ccc(O)cc1)NC(=O)[C@H](CO)NC(=O)[C@@H](Cc1c[nH]c2ccccc12)NC(=O)[C@@H](Cc1ccc(Cl)cc1)NC(=O)[C@@H](Cc1ccc2ccccc2c1)NC(C)=O)C(=O)N[C@@H](CC(C)C)C(=O)N[C@@H](CCCNC(=N)N)C(=O)N1CCC[C@H]1C(=O)N[C@H](C)C(N)=O [EX IV, Ac-D-Nal(2)-D-Phe(4-Cl)-D-Trp-Ser-Tyr-D-Cit(Et)-Leu-Arg-Pro-D-Ala-NH2] (Ac-[d2Nal][dPhe(4-Cl)][dW]SY[dOrn]([CO-NHEt])LRP[dA]-NH2) | 0 | 0 | 9 | 0 | 9 | 0
CC(=O)N[C@H](Cc1ccc(Cl)cc1)C(=O)N[C@H](Cc1ccc(Cl)cc1)C(=O)N[C@H](Cc1c[nH]c2ccccc12)C(=O)N[C@@H](CO)C(=O)N[C@@H](Cc1ccc(O)cc1)C(=O)N[C@H](CCCCNC(N)=O)C(=O)N[C@@H](CC(C)C)C(=O)N[C@@H](CCCNC(=N)N)C(=O)N1CCC[C@H]1C(=O)N[C@H](C)C(N)=O [EX V, Ac-D-Phe(4-Cl)-D-Phe(4-Cl)-D-Trp-Ser-Tyr-D-Hci-Leu-Arg-Pro-D-Ala-NH2] (Ac-[dPhe(4-Cl)][dPhe(4-Cl)][dW]SY[d(hCit)]LRP[dA]-NH2) | 0 | 0 | 9 | 0 | 8 | 1
CC(=O)N[C@H](Cc1ccc(Cl)cc1)C(=O)N[C@H](Cc1ccc(Cl)cc1)C(=O)N[C@H](Cc1c[nH]c2ccccc12)C(=O)N[C@@H](CO)C(=O)N[C@@H](Cc1ccc(O)cc1)C(=O)N[C@H](CCCNC(=N)N)C(=O)N[C@@H](CC(C)C)C(=O)N[C@@H](CCCNC(=N)N)C(=O)N1CCC[C@H]1C(=O)N[C@H](C)C(N)=O [ORG 30276, (N-Ac-D-p-Cl-Phe^1,2, D-Trp^3, D-Arg^6, D-Ala^10)-LHRH, reference compound] (Ac-[dPhe(4-Cl)][dPhe(4-Cl)][dW]SY[dR]LRP[dA]-NH2) | 0 | 5 and 3 | – | 6 and 3 | – | 2 and 1
Ac-[d2Nal][dPhe(4-Cl)][dW]SY[d(hCit)]RP[dA]-NH2 [EX I] | 0 | 0 | 8 | 0 | 8 | 0
